Activity calls are given as the source filed them. The rule behind the calls is not given here.
Assays:
SN12C = experiment: Antiproliferative activity against human SN12C cells assessed as growth inhibition after 48 hrs by sulforhodamine B assay; format: functional; settings: for CC50: read-out: LC50 (the source's name)
SR = experiment: Antiproliferative activity against human SR cells assessed as cell growth at 10^-8 M after 48 hrs by sulforhodamine B assay; format: functional; settings: read-out: Activity
CCRF-CEM = experiment: Antiproliferative activity against human CCRF-CEM cells assessed as cell growth at 10^-7 M after 48 hrs by sulforhodamine B assay; format: functional; settings: read-out: Activity
[1] = Antiproliferative activity against human IGROV1 cells assessed as cell growth at 10^-7 M after 48 hrs by sulforhodamine B assay; format: functional; settings: IGROV-1, 48 h, read-out: Activity
MDA-MB-435 = experiment: Antiproliferative activity against human MDA-MB-435 cells assessed as cell growth at 10^-7 M after 48 hrs by sulforhodamine B assay; format: functional; settings: MDA-MB-435, 48 h, read-out: Activity
[2] = Antiproliferative activity against human HOP92 cells assessed as cell growth at 10^-8 M after 48 hrs by sulforhodamine B assay; format: functional; settings: HOP-92, 48 h, read-out: Activity
[3] = Antiproliferative activity against human SNB19 cells assessed as cell growth at 10^-8 M after 48 hrs by sulforhodamine B assay; format: functional; settings: SNB-19, 48 h, read-out: Activity
[4] = Antiproliferative activity against human SF539 cells assessed as cell growth at 10^-6 M after 48 hrs by sulforhodamine B assay; format: functional; settings: SF-539, 48 h, read-out: Activity
[5] = Antiproliferative activity against human IGROV1 cells assessed as cell growth at 10^-4 M after 48 hrs by sulforhodamine B assay; format: functional; settings: IGROV-1, 48 h, read-out: Activity
CYP2C19 = CYP2C19 (Homo sapiens, UniProt P33261); experiment: Inhibition of recombinant human CYP2C19 assessed as remaining enzyme activity at 10 uM after 5 mins in presence of NADP by fluorescence plate reader analysis; format: ADME; settings: read-out: Activity
CYP2C19, sequence (P33261 whole entry): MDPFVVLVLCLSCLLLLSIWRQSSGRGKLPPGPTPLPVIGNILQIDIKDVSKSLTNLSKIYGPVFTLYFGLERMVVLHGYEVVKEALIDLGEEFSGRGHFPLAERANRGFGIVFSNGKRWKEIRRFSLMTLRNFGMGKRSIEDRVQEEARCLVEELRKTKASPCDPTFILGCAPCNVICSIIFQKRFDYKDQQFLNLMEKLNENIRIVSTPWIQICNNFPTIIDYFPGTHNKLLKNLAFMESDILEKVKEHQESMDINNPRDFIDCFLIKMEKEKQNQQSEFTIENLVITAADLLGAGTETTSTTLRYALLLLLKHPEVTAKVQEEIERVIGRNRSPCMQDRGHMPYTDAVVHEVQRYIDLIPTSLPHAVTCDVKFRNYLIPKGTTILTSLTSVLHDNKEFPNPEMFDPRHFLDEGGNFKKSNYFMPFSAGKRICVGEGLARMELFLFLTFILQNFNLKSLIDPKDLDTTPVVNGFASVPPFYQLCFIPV

[6] = Antiproliferative activity against human Caki1 cells assessed as cell growth at 10^-6 M after 48 hrs by sulforhodamine B assay; format: functional; settings: CAKI-1, 48 h, read-out: Activity
A498 = experiment: Antiproliferative activity against human A498 cells assessed as cell growth at 10^-4 M after 48 hrs by sulforhodamine B assay; format: functional; settings: A498, 48 h, read-out: Activity
[7] = Antiproliferative activity against human BT549 cells assessed as cell growth at 10^-6 M after 48 hrs by sulforhodamine B assay; format: functional; settings: BT-549, 48 h, read-out: Activity
[8] = Antiproliferative activity against human SKOV3 cells assessed as cell growth at 10^-4 M after 48 hrs by sulforhodamine B assay; format: functional; settings: SK-OV-3, 48 h, read-out: Activity
Malme-3M = experiment: Antiproliferative activity against human MALME-3M cells assessed as cell growth at 10^-4 M after 48 hrs by sulforhodamine B assay; format: functional; settings: read-out: Activity
[9] = Antiproliferative activity against human UACC257 cells assessed as cell growth at 10^-7 M after 48 hrs by sulforhodamine B assay; format: functional; settings: UACC-257, 48 h, read-out: Activity
[10] = Antiproliferative activity against human OVCAR8 cells assessed as cell growth at 10^-8 M after 48 hrs by sulforhodamine B assay; format: functional; settings: OVCAR-8, 48 h, read-out: Activity
[11] = Antiproliferative activity against human HCT15 cells assessed as cell growth at 10^-6 M after 48 hrs by sulforhodamine B assay; format: functional; settings: HCT-15, 48 h, read-out: Activity
[12] = Antiproliferative activity against human MOLT4 cells assessed as cell growth at 10^-7 M after 48 hrs by sulforhodamine B assay; format: functional; settings: MOLT-4, 48 h, read-out: Activity
NCI-H226 = experiment: Antiproliferative activity against human NCI-H226 cells assessed as cell growth at 10^-8 M after 48 hrs by sulforhodamine B assay; format: functional; settings: NCI-H226, 48 h, read-out: Activity
[13] = test system: Serine/threonine-protein kinase B-raf (Homo sapiens), P15056 [V600E]; experiment: Inhibition of BRAF V600E mutant assessed as reduction in ERK phosphorylation in human A375P cells after 24 hrs by Western blot analysis; format: cell-based
Serine/threonine-protein kinase B-raf (Homo sapiens), P15056 [V600E], sequence (P15056 whole entry V600E): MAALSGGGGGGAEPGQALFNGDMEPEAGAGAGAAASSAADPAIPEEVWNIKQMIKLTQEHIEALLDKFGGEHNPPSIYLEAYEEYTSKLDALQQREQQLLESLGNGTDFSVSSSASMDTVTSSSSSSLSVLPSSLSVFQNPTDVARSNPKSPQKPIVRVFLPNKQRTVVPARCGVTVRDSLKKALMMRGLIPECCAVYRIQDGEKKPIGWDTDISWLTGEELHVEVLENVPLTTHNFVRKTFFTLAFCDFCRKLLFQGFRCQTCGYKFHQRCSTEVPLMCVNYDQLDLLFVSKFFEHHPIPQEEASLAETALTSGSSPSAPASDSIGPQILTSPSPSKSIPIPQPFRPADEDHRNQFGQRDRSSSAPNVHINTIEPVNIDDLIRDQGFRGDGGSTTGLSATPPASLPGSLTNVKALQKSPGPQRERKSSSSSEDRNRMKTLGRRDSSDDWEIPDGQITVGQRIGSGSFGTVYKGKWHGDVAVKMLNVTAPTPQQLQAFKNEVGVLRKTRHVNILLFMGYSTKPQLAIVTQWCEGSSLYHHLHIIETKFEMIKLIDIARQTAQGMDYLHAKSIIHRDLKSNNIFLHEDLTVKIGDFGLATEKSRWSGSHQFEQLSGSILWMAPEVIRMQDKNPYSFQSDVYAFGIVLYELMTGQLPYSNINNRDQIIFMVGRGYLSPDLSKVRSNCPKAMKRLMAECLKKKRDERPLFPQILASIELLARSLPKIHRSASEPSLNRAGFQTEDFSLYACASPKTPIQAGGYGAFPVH

[14] = test system: Serine/threonine-protein kinase B-raf (Homo sapiens), P15056 [V600E]; experiment: Inhibition of BRAF V600E mutant assessed as reduction in MEK phosphorylation in human A375P cells after 24 hrs by Western blot analysis; format: cell-based
[15] = target: Fibroblast growth factor receptor 3 (Homo sapiens) (UniProt P22607); experiment: Inhibition of human FGFR3 at 10 uM measured after 40 mins by scintillation counting
[16] = target: Proto-oncogene tyrosine-protein kinase Src (Homo sapiens) (UniProt P12931); experiment: Inhibition of human C-Src at 10 uM measured after 40 mins by scintillation counting
Proto-oncogene tyrosine-protein kinase Src (Homo sapiens), sequence (P12931 2-536 limits assumed): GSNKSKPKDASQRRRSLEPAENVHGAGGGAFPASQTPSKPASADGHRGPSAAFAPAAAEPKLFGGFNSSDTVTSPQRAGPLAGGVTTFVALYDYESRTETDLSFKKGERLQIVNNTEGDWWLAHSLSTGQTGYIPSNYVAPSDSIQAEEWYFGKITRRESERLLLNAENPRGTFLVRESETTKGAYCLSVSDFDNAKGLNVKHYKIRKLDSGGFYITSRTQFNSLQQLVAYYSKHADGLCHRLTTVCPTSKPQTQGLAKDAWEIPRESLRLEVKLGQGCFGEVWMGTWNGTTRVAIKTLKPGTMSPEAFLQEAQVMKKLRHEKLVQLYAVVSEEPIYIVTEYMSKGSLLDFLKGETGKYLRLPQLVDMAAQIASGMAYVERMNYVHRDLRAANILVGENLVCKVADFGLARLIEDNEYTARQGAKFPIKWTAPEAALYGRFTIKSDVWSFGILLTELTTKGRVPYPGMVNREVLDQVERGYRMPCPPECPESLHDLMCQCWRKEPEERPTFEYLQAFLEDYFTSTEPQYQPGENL

[17] = target: Serine/threonine-protein kinase B-raf (Homo sapiens) (UniProt P15056); experiment: Inhibition of human BRAF at 10 uM measured after 40 mins by scintillation counting
Serine/threonine-protein kinase B-raf (Homo sapiens), sequence (P15056 whole entry): as the sequence (P15056 whole entry V600E) above, with E600V counted along it

[18] = target: Aurora kinase A (Homo sapiens) (UniProt O14965); experiment: Inhibition of human Aurora-A at 10 uM measured after 40 mins by scintillation counting
Aurora kinase A (Homo sapiens), sequence (O14965 whole entry): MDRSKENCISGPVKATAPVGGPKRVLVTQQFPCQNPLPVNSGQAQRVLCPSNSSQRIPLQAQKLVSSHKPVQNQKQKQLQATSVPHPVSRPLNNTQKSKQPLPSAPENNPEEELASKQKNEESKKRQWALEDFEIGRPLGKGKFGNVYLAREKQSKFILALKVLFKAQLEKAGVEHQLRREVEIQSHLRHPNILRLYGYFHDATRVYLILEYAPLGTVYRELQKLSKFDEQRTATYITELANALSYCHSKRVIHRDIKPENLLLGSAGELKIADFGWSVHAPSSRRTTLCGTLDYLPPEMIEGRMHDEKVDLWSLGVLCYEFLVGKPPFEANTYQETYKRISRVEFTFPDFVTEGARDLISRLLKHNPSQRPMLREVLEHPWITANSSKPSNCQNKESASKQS

[19] = target: Epidermal growth factor receptor (Homo sapiens) (UniProt P00533); experiment: Inhibition of human EGFR at 10 uM measured after 40 mins by scintillation counting
Epidermal growth factor receptor (Homo sapiens), sequence (P00533 whole entry): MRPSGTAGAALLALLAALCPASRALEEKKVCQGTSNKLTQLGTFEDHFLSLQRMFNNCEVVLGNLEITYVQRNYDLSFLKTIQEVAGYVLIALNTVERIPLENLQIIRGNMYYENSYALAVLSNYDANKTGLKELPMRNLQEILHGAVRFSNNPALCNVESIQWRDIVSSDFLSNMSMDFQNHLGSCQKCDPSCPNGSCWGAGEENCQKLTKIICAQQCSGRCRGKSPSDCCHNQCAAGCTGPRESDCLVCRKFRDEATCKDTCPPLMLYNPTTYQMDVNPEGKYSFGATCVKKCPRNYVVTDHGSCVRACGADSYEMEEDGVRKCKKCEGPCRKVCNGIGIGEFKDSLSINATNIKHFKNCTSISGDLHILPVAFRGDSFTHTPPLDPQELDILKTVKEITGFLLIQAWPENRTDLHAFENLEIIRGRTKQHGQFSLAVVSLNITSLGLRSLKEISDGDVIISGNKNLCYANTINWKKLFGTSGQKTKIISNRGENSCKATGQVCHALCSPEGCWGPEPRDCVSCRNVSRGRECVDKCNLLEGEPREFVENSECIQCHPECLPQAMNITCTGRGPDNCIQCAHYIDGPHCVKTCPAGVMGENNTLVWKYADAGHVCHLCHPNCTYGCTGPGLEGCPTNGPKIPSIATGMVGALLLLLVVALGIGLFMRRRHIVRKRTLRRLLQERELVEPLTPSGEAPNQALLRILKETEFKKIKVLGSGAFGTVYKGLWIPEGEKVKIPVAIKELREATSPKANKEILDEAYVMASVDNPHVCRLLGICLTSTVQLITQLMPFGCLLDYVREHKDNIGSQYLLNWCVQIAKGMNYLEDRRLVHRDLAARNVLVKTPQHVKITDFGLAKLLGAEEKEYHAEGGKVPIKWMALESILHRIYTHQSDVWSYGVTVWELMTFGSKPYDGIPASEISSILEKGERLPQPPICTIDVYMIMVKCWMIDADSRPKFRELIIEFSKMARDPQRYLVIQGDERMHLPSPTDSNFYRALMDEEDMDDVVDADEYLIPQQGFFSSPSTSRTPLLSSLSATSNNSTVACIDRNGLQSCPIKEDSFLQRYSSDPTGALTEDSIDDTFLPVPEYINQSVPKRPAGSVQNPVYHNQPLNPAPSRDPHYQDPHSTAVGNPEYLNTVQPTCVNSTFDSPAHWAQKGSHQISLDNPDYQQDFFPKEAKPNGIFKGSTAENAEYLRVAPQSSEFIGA

[20] = target: Hepatocyte growth factor receptor (Homo sapiens) (UniProt P08581); experiment: Inhibition of human C-Met at 10 uM measured after 40 mins by scintillation counting
[21] = target: Activin receptor type-1-like (Homo sapiens) (UniProt P37023); experiment: Inhibition of human ALK1 at 10 uM measured after 40 mins by scintillation counting
[22] = target: Tyrosine-protein kinase ABL1 (Homo sapiens) (UniProt P00519); experiment: Inhibition of human ABL1 at 10 uM measured after 40 mins by scintillation counting
Tyrosine-protein kinase ABL1 (Homo sapiens), sequence (P00519 whole entry): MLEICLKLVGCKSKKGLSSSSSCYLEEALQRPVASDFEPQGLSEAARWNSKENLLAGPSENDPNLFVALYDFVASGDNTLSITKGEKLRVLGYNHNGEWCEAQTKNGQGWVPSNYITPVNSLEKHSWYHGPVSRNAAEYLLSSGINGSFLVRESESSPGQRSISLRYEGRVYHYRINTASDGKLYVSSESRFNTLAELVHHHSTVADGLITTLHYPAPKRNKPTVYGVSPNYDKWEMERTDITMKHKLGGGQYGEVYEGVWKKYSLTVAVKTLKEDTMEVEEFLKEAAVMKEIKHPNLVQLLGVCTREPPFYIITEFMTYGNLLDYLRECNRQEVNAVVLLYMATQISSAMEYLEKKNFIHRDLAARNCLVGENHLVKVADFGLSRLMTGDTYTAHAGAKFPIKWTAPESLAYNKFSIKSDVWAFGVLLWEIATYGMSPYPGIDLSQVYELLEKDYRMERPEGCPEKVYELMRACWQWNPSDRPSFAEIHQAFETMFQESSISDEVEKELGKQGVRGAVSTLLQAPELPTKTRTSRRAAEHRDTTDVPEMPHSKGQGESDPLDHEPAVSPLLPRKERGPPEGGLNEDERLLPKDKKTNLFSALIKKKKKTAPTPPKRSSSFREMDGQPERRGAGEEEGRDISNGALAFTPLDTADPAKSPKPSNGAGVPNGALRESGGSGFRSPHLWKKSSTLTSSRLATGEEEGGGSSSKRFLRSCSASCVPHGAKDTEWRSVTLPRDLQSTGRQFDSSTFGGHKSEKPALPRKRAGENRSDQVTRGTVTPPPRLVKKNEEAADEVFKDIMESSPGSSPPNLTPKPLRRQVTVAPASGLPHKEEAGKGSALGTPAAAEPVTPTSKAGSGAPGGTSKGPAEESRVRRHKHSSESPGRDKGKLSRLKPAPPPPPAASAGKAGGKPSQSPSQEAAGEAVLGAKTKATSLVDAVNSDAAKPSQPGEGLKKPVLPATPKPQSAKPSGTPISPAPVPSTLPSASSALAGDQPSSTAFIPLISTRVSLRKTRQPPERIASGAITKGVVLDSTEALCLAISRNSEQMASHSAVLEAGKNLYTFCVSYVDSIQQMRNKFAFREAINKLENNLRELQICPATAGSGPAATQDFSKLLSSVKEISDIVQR

CNC(=O)c1cc(Oc2ccc(NC(=O)Nc3ccc(Cl)c(C(F)(F)F)c3)cc2)ccn1 [SORAFENIB]
GI50 (SN12C): 2.51 µM
TGI (SN12C): 10 µM
CC50 (SN12C): 39.8 µM

CNC(=O)c1cc(Oc2ccc3nc(NC(=O)c4cc(C(F)(F)F)cc(C(F)(F)F)c4)sc3c2)ccn1
growth at 0.01 µM (SR): 91%
growth at 0.1 µM (CCRF-CEM): 108%
growth at 0.1 µM [1]: 98%
growth at 0.1 µM (MDA-MB-435): 92%
growth at 0.01 µM [2]: 91%
growth at 0.01 µM [3]: 98%
growth at 1 µM [4]: 87%
growth at 100 µM [5]: -35%
activity at 5 min, 10 µM (CYP2C19): 10.3%
growth at 1 µM [6]: 88%
growth at 100 µM (A498): -65%
growth at 1 µM [7]: 92%
growth at 100 µM [8]: -56%
growth at 100 µM (Malme-3M): -38%
growth at 0.1 µM [9]: 95%
growth at 0.01 µM [10]: 97%
GI50 (SN12C): 3.22 µM
TGI (SN12C): 12.5 µM
CC50 (SN12C): 89.8 µM
growth at 1 µM [11]: 96%
growth at 0.1 µM [12]: 87%
growth at 0.01 µM (NCI-H226): 99%

CNC(=O)c1cc(Oc2ccc3nc(NC(=O)Nc4ccc(Cl)c(Cl)c4)sc3c2)ccn1
growth at 0.01 µM (SR): 108%
growth at 0.1 µM (CCRF-CEM): 107%
growth at 0.1 µM [1]: 92%
growth at 0.1 µM (MDA-MB-435): 95%
growth at 0.01 µM [2]: 100%
growth at 0.01 µM [3]: 98%
growth at 1 µM [4]: 100%
growth at 100 µM [5]: -20%
activity at 5 min, 10 µM (CYP2C19): 83.6%
growth at 1 µM [6]: 98%
growth at 100 µM (A498): -42%
growth at 1 µM [7]: 102%
growth at 100 µM [8]: -69%
growth at 100 µM (Malme-3M): -75%
growth at 0.1 µM [9]: 92%
growth at 0.01 µM [10]: 103%
GI50 (SN12C): 3.92 µM
TGI (SN12C): > 100 µM
CC50 (SN12C): > 100 µM
growth at 1 µM [11]: 91%
growth at 0.1 µM [12]: 96%
growth at 0.01 µM (NCI-H226): 104%

CNC(=O)c1cc(Oc2ccc3nc(NC(=O)Nc4cc(C(F)(F)F)cc(C(F)(F)F)c4)sc3c2)ccn1
growth at 0.01 µM (SR): 99%
inhibition [13]: Active
growth at 0.1 µM (CCRF-CEM): 114%
growth at 0.1 µM [1]: 89%
growth at 0.1 µM (MDA-MB-435): 95%
growth at 0.01 µM [2]: 102%
growth at 0.01 µM [3]: 99%
growth at 1 µM [4]: 63%
growth at 100 µM [5]: -60%
activity at 5 min, 10 µM (CYP2C19): 70.1%
growth at 1 µM [6]: 58%
growth at 100 µM (A498): -93%
inhibition [14]: Dose-dependent effect
growth at 1 µM [7]: 67%
growth at 100 µM [8]: -84%
inhibition [15]: < 40%
inhibition [16]: < 40%
growth at 100 µM (Malme-3M): -76%
inhibition [17]: < 40%
inhibition [18]: < 40%
inhibition [19]: < 40%
inhibition [20]: < 40%
growth at 0.1 µM [9]: 114%
growth at 0.01 µM [10]: 102%
inhibition [21]: < 40%
GI50 (SN12C): 1.64 µM
TGI (SN12C): 3.79 µM
CC50 (SN12C): 8.76 µM
growth at 1 µM [11]: 76%
growth at 0.01 µM (NCI-H226): 84%
inhibition [22]: < 40%

CNC(=O)c1cc(Oc2ccc3nc(NC(=O)Nc4ccc(Cl)c(C(F)(F)F)c4)sc3c2)ccn1
growth at 0.01 µM (SR): 110%
growth at 0.1 µM (CCRF-CEM): 99%
growth at 0.1 µM [1]: 97%
growth at 0.1 µM (MDA-MB-435): 92%
growth at 0.01 µM [2]: 85%
growth at 0.01 µM [3]: 101%
growth at 1 µM [4]: 87%
growth at 100 µM [5]: -35%
activity at 5 min, 10 µM (CYP2C19): 79.9%
growth at 1 µM [6]: 95%
growth at 100 µM (A498): -40%
growth at 1 µM [7]: 87%
growth at 100 µM [8]: -68%
growth at 100 µM (Malme-3M): -48%
growth at 0.1 µM [9]: 98%
growth at 0.01 µM [10]: 105%
GI50 (SN12C): 2.44 µM
TGI (SN12C): > 100 µM
CC50 (SN12C): > 100 µM
growth at 1 µM [11]: 74%
growth at 0.1 µM [12]: 105%
growth at 0.01 µM (NCI-H226): 93%

— ChEMBL document CHEMBL3797052 (Eur J Med Chem, 2016)
